Measurements reported in patent publication US7244753B2, “Cyclooxygenase-2 selective inhibitors, compositions and methods of use” (NitroMed, Inc., priority 2002, dated 2007).

What was measured:
[1] = target: T1, Human COX-1 (Homo sapiens, UniProt P23219); assay: COX-1 enzyme activity in human whole blood (A23187-stimulated, thromboxane B2 EIA); assay type: cell-based; details: 100 μM test compound
T1 construct: Human blood (≈50 mL) from male or female donors who had not received any aspirin or NSAIDs for 14 days was collected; endogenous in cells; host or cells: human whole blood from donors, heparinised, stimulated with calcium ionophore A23187
Method: (§1) The assay for COX-1 and COX-2 enzyme activity, in the human whole blood was performed as described in Brideau et al., Inflamm Res., 45: 68-74 (1996)). Human blood (≈50 mL) from male or female donors who had not received any aspirin or NSAIDs for 14 days was collected at two local area blood donor centers and placed in polypropylene syringes containing sodium heparin (20 units per mL blood, final concentration). The blood was transported to the laboratory on ice packs and used within 1.5 hours of collection. Upon receipt in the laboratory, the blood was allowed to come to room temperature for 15 minutes prior to distribution in 1 mL aliquots per well of 24 well tissue culture plates. The plates were then placed on a gently rotating platform shaker in a 5% CO2 incubator at 37° C. for 15 minutes. Test compounds were dissolved in DMSO, at 1000 fold the final desired concentration, and further diluted, as indicated, in DMSO. One μL of each dilution of the test compound was added per well, in duplicate wells; wells not receiving test compound (e.g., basal, background or control wells) received 1 μL DMSO.
(§2) To induce COX-2, lipopolysaccharide (LPS) from E. coli (LPS, serotype 026:B6 or serotype 0127:B8, Sigma Chemical Co., St. Louis, Mo., Catalogue No. L3755 or L3129, respectively) was added at 10 μg/mL (2 μL of 5 mg/mL LPS in DMSO) to appropriate wells 15 minutes after the addition of the test compound. (Basal or background wells not incubated with LPS received 2 μL of DMSO.) For the stimulation of COX-1, the calcium ionophore, A23187 (free acid from Sigma Chemical Co., St. Louis, Mo., Catalogue No. C7522) was added at 25 μM (1 μL of 25 mM stock in DMSO) to separate wells 4.5 hours after the addition of the test compound. (Again, basal, background or control wells not stimulated with A23187 received 1 μL of DMSO.) At 5 hours after the addition of the test compound, all incubations were terminated by placement on ice and the addition of 2 mM EGTA (100 μL of 20 mM EGTA, tetrasodium, in PBS (phosphate buffered saline) without Ca^++ and Mg^++, pH 7.2)). The resulting solutions, were transferred by polyethylene transfer pipettes to 15 mL polypropylene centrifuge tubes and centrifuged at 1200 g for 10 minutes at 4° C. One hundred μL of plasma was removed from each blood sample and added to 1 mL of methanol in new 15 mL polypropylene centrifuge tubes, vortexed, and stored overnight at −20° C. The next day, the samples were centrifuged at 2000 g for 10 minutes at 4° C. and the supernatants transferred to glass tubes and evaporated to dryness. The samples were assayed for thromboxane B2 using EIA kits supplied by Cayman Chemical Co. (Ann Arbor, Mich., Catalogue No. 519031) in duplicate wells after reconstitution with EIA Buffer and appropriate dilution (2000 fold for COX-1 and 500 fold for Cox-2 samples).
The % inhibition for COX-1 and COX-2 enzyme activity in human whole blood by the test compounds, at the indicated concentrations, are given in Table 1.

[2] = target: T2, Human COX-2 (Homo sapiens, UniProt P35354); assay: COX-2 enzyme activity in human whole blood (LPS-induced, thromboxane B2 EIA); assay type: cell-based
T2 construct: Human blood (≈50 mL) from male or female donors who had not received any aspirin or NSAIDs for 14 days was collected; endogenous in cells; host or cells: human whole blood from donors, heparinised, COX-2 induced with E. coli LPS
T2 sequence (P35354 18-604): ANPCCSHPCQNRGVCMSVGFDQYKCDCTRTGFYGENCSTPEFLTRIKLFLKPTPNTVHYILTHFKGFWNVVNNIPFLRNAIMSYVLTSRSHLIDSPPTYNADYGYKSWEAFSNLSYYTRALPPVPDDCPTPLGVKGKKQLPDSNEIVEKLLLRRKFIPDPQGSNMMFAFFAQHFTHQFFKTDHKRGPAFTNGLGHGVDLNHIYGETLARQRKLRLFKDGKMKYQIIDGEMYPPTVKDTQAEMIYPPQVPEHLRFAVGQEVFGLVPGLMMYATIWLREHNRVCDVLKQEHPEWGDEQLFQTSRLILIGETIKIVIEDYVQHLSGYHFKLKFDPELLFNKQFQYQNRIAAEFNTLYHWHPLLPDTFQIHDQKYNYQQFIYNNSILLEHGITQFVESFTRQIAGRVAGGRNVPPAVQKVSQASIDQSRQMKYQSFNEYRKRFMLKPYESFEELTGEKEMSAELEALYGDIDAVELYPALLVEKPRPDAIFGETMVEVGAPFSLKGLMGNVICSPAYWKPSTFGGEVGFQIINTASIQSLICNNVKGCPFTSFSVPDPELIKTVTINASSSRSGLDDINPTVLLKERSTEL
Method: as §1, with “Human” for “The assay for COX-1 and COX-2 enzyme activity, in the human whole blood was performed as described in Brideau et al., Inflamm Res., 45: 68-74 (1996)). Human”
as §2, with “(Basal” for “To induce COX-2, lipopolysaccharide (LPS) from E. coli (LPS, serotype 026:B6 or serotype 0127:B8, Sigma Chemical Co., St. Louis, Mo., Catalogue No. L3755 or L3129, respectively) was added at 10 μg/mL (2 μL of 5 mg/mL LPS in DMSO) to appropriate wells 15 minutes after the addition of the test compound. (Basal”, “dryness.” for “dryness. The samples were assayed for thromboxane B2 using EIA kits supplied by Cayman Chemical Co. (Ann Arbor, Mich., Catalogue No. 519031) in duplicate wells after reconstitution with EIA Buffer and appropriate dilution (2000 fold for COX-1 and 500 fold for Cox-2 samples).”

T1 sequence (P23219 24-599): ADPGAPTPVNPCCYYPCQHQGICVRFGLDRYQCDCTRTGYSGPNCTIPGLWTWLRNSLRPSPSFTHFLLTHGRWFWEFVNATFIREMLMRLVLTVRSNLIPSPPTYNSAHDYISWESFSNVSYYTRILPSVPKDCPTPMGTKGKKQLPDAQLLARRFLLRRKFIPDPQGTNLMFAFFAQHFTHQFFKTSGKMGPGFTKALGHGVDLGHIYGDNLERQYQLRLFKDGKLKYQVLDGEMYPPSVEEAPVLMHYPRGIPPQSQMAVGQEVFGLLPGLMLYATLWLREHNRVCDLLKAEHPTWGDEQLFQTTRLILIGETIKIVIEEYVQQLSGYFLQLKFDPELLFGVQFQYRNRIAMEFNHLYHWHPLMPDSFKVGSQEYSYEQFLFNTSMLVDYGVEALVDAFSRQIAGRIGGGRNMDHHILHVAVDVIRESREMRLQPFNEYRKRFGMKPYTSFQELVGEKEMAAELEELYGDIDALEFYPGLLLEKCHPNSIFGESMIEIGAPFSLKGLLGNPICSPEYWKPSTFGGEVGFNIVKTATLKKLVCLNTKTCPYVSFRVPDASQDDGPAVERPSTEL

inhibition at 100 µM [1] [%] | inhibition at 1 µM ([2]; 1 μM test compound) [%] | inhibition at 10 µM ([2]; 10 μM test compound) [%] | melting point [°C] | COX-1 Inhibition (% at 100 μM) [1] [%] | COX-2 Inhibition (% at 1 μM) ([2]; 1 μM test compound) [%] | COX-2 Inhibition (% at 10 μM) ([2]; 10 μM test compound) [%] | SMILES
65 | 0 | 45 | – | – | – | – | CS(=O)(=O)c1ccc(-c2cc(CO)nn2CC2CCCCC2)cc1 [Example 1g, 1-(1-(Cyclohexylmethyl)-3-(hydroxymethyl)pyrazol-5-yl)-4-(methylsulfonyl)benzene]
25 | 10 | 65 | 98 to 99 | – | – | – | CS(=O)(=O)c1ccc(-c2cc(CO[N+](=O)[O-])nn2CC2CCCCC2)cc1 [Example 1h, 1-(1-(Cyclohexylmethyl)-3-((nitrooxy)methyl)pyrazol-5-yl)-4-(methylsulfonyl)benzene]
65 | 25 | 65 | – | – | – | – | CS(=O)(=O)c1ccc(-c2cc(COCCO)nn2CC2CCCCC2)cc1 [Example 2e, 4-(1-(Cyclohexylmethyl)-3-((2-hydroxyethoxy)methyl)pyrazol-5-yl)-1 (methylsulfonyl)benzene]
25 | 10 | 15 | – | – | – | – | CS(=O)(=O)c1ccc(-c2cc(CO)nn2Cc2ccccc2)cc1 [Example 3c, 1-(3-(Hydroxymethyl)-1-benzylpyrazol-5-yl)-4-(methylsulfonyl)benzene]
55 | 20 | 40 | 93 to 94 | – | – | – | CS(=O)(=O)c1ccc(-c2cc(CO[N+](=O)[O-])nn2Cc2ccccc2)cc1 [Example 3d, 4-(Methylsulfonyl)-1-(3-((nitrooxyl)methyl)-1-benzylpyrazol-5-yl)benzene]
50 | 25 | 45 | – | – | – | – | CS(=O)(=O)c1ccc(-c2cc(/C=C/CO)nn2CC2CCCCC2)cc1 [Example 4d, 1-(3-((1E)-3-Hydroxyprop-1-enyl)-1-(cyclohexylmethyl)pyrazol-5-yl)-4-(methylsulfonyl)benzene]
40 | 35 | 75 | 44 to 47 | – | – | – | CS(=O)(=O)c1ccc(-c2cc(/C=C/CO[N+](=O)[O-])nn2CC2CCCCC2)cc1 [Example 4e, 1-(3-((1E)-3-Nitrooxyprop-1-enyl)-1-(cyclohexylmethyl)pyrazol-5-yl)-4-(methylsulfonyl)benzene]
90 | 45 | 90 | – | – | – | – | CS(=O)(=O)c1ccc(-c2cc(CCCO)nn2CC2CCCCC2)cc1 [Example 5b, 1-(1-(Cyclohexylmethyl)-3-(3-hydroxypropyl)pyrazol-5-yl)-4-(methylsulfonyl)benzene]
– | – | – | – | 5 | 15 | 30 | COC(=O)/C=C/c1cc(-c2ccc(S(C)(=O)=O)cc2)n(CC2CCCCC2)n1 [Example 7, Methyl (2E)-3-(1-(cyclohexylmethyl)-5-(4-(methylsulfonyl)phenyl)pyrazol-3-yl) prop-2-enoate]
90 | – | – | 141 to 142 | – | – | – | CS(=O)(=O)c1ccc(-c2cc(C(F)(F)F)cnc2C(=O)c2ccccc2)cc1 [Example 9a, 3-(4-(Methylsulfonyl)phenyl)-5-(trifluoromethyl)(2-pyridyl) Phenyl Ketone]
-10 | 35 | 55 | – | – | – | – | CS(=O)(=O)c1ccc(-c2cc(C(F)(F)F)cnc2C(C#N)c2ccccc2)cc1 (centres unmarked) [Example 9b, 2-(3-(4-(methylsulfonyl)phenyl)-5-(trifluoromethyl)(2-pyridyl))-2-phenylethanenitrile]
5 | 55 | 50 | – | – | – | – | CS(=O)(=O)c1ccc(-c2ncccc2C(=O)c2cccc(F)c2)cc1 [Example 10c, 3-Fluorophenyl 2-(4-methylsulfonylphenyl)(3-pyridyl) ketone]
